Experimental data as given in patent publication US10766869B2, “Triazoles for the treatment of demyelinating dieases” (Vertex Pharmaceuticals Incorporated, priority 2015, dated 2020).
Read-outs that look alike come from different tables or passages of the source.

Tested on: primary rat mixed cortical cells
Assay: In vitro myelination assay (MBP positive myelin strands, fold myelin pixels above background)
Assay type: cell-based
Conditions: Rattus norvegicus; for fold induction at 1 µM: 1.0 μM compound; for fold induction at 10 µM: 10.0 μM compound
How it was run: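 Mixed cortical culture, P1 rat, 87,500-95,000 cells/well; compound present from seeding, refreshed days 6 and 10; 14 d, 37 °C, 5% CO2. Day 14: PFA fix, anti-MBP + Hoechst. Read-out: fold MBP myelin pixels over untreated, tested at 1.0 and 10.0 μM.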

[1] = read-out: Fold myelin pixels above background relative to baseline of no added compound
[2] = relative to baseline of no added compound, read-out: Fold myelin pixels above background
[3] = relative to baseline of no added compound, read-out: Fold myelin pixels above background, 1.0 μM
[4] = relative to baseline of no added compound, read-out: Fold myelin pixels above background, 10.0 μM

SMILES | fold induction at 1 µM [1] | fold induction at 10 µM [1] | fold induction at 1 µM [2] | fold induction at 10 µM [2] | further results
Cc1cc(Nc2ncn(-c3cc(F)cc(F)c3)n2)cc(N2CCN(CCCO)CC2)c1 [Compound 990, 3-[4-[3-[[1-(3,5-difluorophenyl)-1,2,4-triazol-3-yl]amino]-5-methyl-phenyl]piperazin-1-yl]propan-1-ol] | ≤ 1 | ≤ 1 |  |  | 
[2H]C1(N2CCN(c3cc(C)cc(Nc4ncn(-c5cc(F)cc(F)c5)n4)c3)CC2)COC1 [Compound 1110, N-[3-[4-(3-deuteriooxetan-3-yl)piperazin-1-yl]-5-methyl-phenyl]-1-(3,5-difluorophenyl)-1,2,4-triazol-3-amine] | 1000 to 10000 | 1 to 10 |  |  | 
Cc1cc(Nc2ncn(-c3cc(F)cc(F)c3)n2)cc(N2CCN(C3CCCCC3O)CC2)c1 (stereo not shown) [Compound 878, 2-[4-[3-[[1-(3,5-difluorophenyl)-1,2,4-triazol-3-yl]amino]-5-methyl-phenyl]piperazin-1-yl]cyclohexanol] | 10 to 100 | ≤ 1 |  |  | 
Cc1cc(Nc2ncn(-c3cccc(C(F)(F)F)c3)n2)cc(OCCN2CCOCC2)c1 [Compound 575, N-[3-methyl-5-(2-morpholinoethoxy)phenyl]-1-[3-(trifluoromethyl)phenyl]-1,2,4-triazol-3-amine] |  |  | 10 to 100 | ≤ 1 | 
Cc1cc(C#CC2CC2)cc(Nc2ncn(-c3cc(F)cc(F)c3)n2)c1 [Compound 798, N-[3-(2-cyclopropylethynyl)-5-methyl-phenyl]-1-(3,5-difluorophenyl)-1,2,4-triazol-3-amine] | 1 to 10 | 1 to 10 |  |  | 
Cc1cc(Nc2ncn(-c3cc(F)cc(F)c3)n2)c(F)c(NC2(C)COC2)c1 [Compound 869, N3-[1-(3,5-difluorophenyl)-1,2,4-triazol-3-yl]-2-fluoro-5-methyl-N1-(3-methyloxetan-3-yl)benzene-1,3-diamine] | 10 to 100 | 1 to 10 |  |  | 
COCCCN1CCC(Nc2cc(C)cc(Nc3ncn(-c4ccccc4)n3)c2)CC1 [Compound 182, N1-[1-(3-methoxypropyl)-4-piperidyl]-5-methyl-N3-(1-phenyl-1,2,4-triazol-3-yl)benzene-1,3-diamine] |  |  |  |  | fold induction at 1 µM [3]: 1000 to 10000; fold induction at 10 µM [4]: 1 to 10
Cc1cc(Nc2ncn(-c3cc(F)cc(F)c3)n2)cc(C2CCN(C3COC3)CC2(F)F)c1 (stereo not shown) [Compound 235, N-[3-[3,3-difluoro-1-(oxetan-3-yl)-4-piperidyl]-5-methyl-phenyl]-1-(3,5-difluorophenyl)-1,2,4-triazol-3-amine] |  |  |  |  | fold induction at 1 µM [3]: 10 to 100; fold induction at 10 µM [4]: 10 to 100
Cc1cc(Nc2ncn(-c3ccccc3C)n2)cc(N2CCN(C3COC3)CC2)c1 [Compound 414, N-[3-methyl-5-[4-(oxetan-3-yl)piperazin-1-yl]phenyl]-1-(o-tolyl)-1,2,4-triazol-3-amine] |  |  | 1 to 10 | 100 to 1000 | 
Fc1cc(F)cc(-n2cnc(Nc3cc(C4=CCOCC4)nc(C4CC4)c3)n2)c1 [Compound 35, 2-cyclopropyl-N-[1-(3,5-difluorophenyl)-1,2,4-triazol-3-yl]-6-(3,6-dihydro-2H-pyran-4-yl)pyridin-4-amine] |  |  |  |  | fold induction at 1 µM [3]: 100 to 1000; fold induction at 10 µM [4]: 10 to 100
Cc1cc(Nc2ncn(-c3cc(F)cc(F)c3)n2)cc(N2CCOC(C3CCCO3)C2)c1 (stereo not shown) [Compound 888, 1-(3,5-difluorophenyl)-N-[3-methyl-5-(2-tetrahydrofuran-2-ylmorpholin-4-yl)phenyl]-1,2,4-triazol-3-amine] | 1 to 10 | 1 to 10 |  |  | 
Cc1cc(Nc2ncn(-c3cc(F)cc(F)c3)n2)cc(N2CCOC(CCO)C2)c1 (stereo not shown) [Compound 958, 2-[4-[3-[[1-(3,5-difluorophenyl)-1,2,4-triazol-3-yl]amino]-5-methyl-phenyl]morpholin-2-yl]ethanol] | 10 to 100 | ≤ 1 |  |  | 
Fc1cc(F)cc(-n2cnc(Nc3cc(C(F)(F)F)cc(N4CC(N5CCOCC5)C4)n3)n2)c1 [Compound 601, N-[1-(3,5-difluorophenyl)-1,2,4-triazol-3-yl]-6-(3-morpholinoazetidin-1-yl)-4-(trifluoromethyl)pyridin-2-amine] |  |  | 1 to 10 | ≤ 1 | 
CN1CCN(c2cc(Nc3ncn(-c4ccc(F)c(F)c4)n3)cc(Cl)n2)CC1 [Compound 477, 2-chloro-N-[1-(3,4-difluorophenyl)-1,2,4-triazol-3-yl]-6-(4-methylpiperazin-1-yl)pyridin-4-amine] |  |  | 10 to 100 | ≤ 1 | 
Cc1cc(Nc2ncn(C)n2)cc(Nc2ncn(-c3ccccc3)n2)c1 [Compound 676, 5-methyl-N3-(1-methyl-1,2,4-triazol-3-yl)-N1-(1-phenyl-1,2,4-triazol-3-yl)benzene-1,3-diamine] |  |  | 10 to 100 | ≤ 1 | 
Cc1cc(Nc2ncn(-c3ccccn3)n2)cc(N2CCN(C3COC3)CC2)c1 [Compound 104, N-[3-methyl-5-[4-(oxetan-3-yl)piperazin-1-yl]phenyl]-1-(2-pyridyl)-1,2,4-triazol-3-amine] |  |  |  |  | fold induction at 1 µM [3]: 10 to 100; fold induction at 10 µM [4]: 100 to 1000
Cc1cc(Nc2ncn(-c3cnccn3)n2)cc(N2CC3(C2)CN(C(C)C)C3)c1 [Compound 967, N-[3-(2-isopropyl-2,6-diazaspiro[3.3]heptan-6-yl)-5-methyl-phenyl]-1-pyrazin-2-yl-1,2,4-triazol-3-amine] | 10 to 100 | ≤ 1 |  |  | 
Cc1cc(Nc2ncn(-c3ccnc(F)c3)n2)cc(N2CCOCC2)c1 [Compound 403, 1-(2-fluoro-4-pyridyl)-N-(3-methyl-5-morpholino-phenyl)-1,2,4-triazol-3-amine] |  |  | 1000 to 10000 | 10 to 100 | 
Cc1cc(Nc2ncn(-c3cc(F)cc(F)c3)n2)cc([C@@]2(C)CNC(=O)O2)c1 (stereo in doubt) [Compound 658, 5-[3-[[1-(3,5-difluorophenyl)-1,2,4-triazol-3-yl]amino]-5-methyl-phenyl]-5-methyl-oxazolidin-2-one] |  |  | 10 to 100 | ≤ 1 | 
Cc1cc(Nc2ncn(-c3ncncc3F)n2)cc(N2CCN(C3COC3)CC2)c1 [Compound 291, 1-(5-fluoropyrimidin-4-yl)-N-[3-methyl-5-[4-(oxetan-3-yl)piperazin-1-yl]phenyl]-1,2,4-triazol-3-amine] |  |  |  |  | fold induction at 1 µM [3]: ≤ 1; fold induction at 10 µM [4]: 1 to 10
Cc1cc(Nc2ncn(-c3ccccc3)n2)cc(N2CCN(CC3(C)COC3)CC2)c1 [Compound 431, N-[3-methyl-5-[4-[(3-methyloxetan-3-yl)methyl]piperazin-1-yl]phenyl]-1-phenyl-1,2,4-triazol-3-amine] |  |  | 1 to 10 | ≤ 1 | 
[2H]C([2H])([2H])C(=O)N1C([2H])([2H])C([2H])([2H])N(c2cc(C)cc(Nc3ncn(-c4cc(F)cc(F)c4)n3)c2)C([2H])([2H])C1([2H])[2H] [Compound 959, 2,2,2-trideuterio-1-[2,2,3,3,5,5,6,6-octadeuterio-4-[3-[[1-(3,5-difluorophenyl)-1,2,4-triazol-3-yl]amino]-5-methyl-phenyl]piperazin-1-yl]ethanone] | 1 to 10 | ≤ 1 |  |  | 
Cc1cc(Nc2ncn(-c3cc(F)cc(F)c3)n2)cc(N2CC(N3CCCOCC3)C2)c1 [Compound 808, 1-(3,5-difluorophenyl)-N-[3-methyl-5-[3-(1,4-oxazepan-4-yl)azetidin-1-yl]phenyl]-1,2,4-triazol-3-amine] | 10 to 100 | ≤ 1 |  |  | 
COCCC1CN(c2cc(C)cc(Nc3ncn(-c4cc(F)cc(F)c4)n3)c2)CCO1 (stereo not shown) [Compound 1030, 1-(3,5-difluorophenyl)-N-[3-[2-(2-methoxyethyl)morpholin-4-yl]-5-methyl-phenyl]-1,2,4-triazol-3-amine] | 10 to 100 | 1 to 10 |  |  | 
Cc1cc(Nc2ncn(-c3ccc(F)c(F)c3)n2)cc(NC2CC(N3CCOCC3)C2)c1 (stereo not shown) [Compound 799, N3-[1-(3,4-difluorophenyl)-1,2,4-triazol-3-yl]-5-methyl-N1-(3-morpholinocyclobutyl)benzene-1,3-diamine] | 10 to 100 | ≤ 1 |  |  | 
Cc1cc(Nc2ncn(-c3cc(F)cc(F)c3)n2)nc(N2CCN(C3(C)COC3)CC2)c1 [Compound 580, N-[1-(3,5-difluorophenyl)-1,2,4-triazol-3-yl]-4-methyl-6-[4-(3-methyloxetan-3-yl)piperazin-1-yl]pyridin-2-amine] |  |  | ≤ 1 | 1 to 10 | 
Cc1cc(Nc2ncn(-c3cc(F)cc(F)c3)n2)cc(N2CCN(CC(C)(C)O)CC2C)c1 (stereo not shown) [Compound 1024, 1-[4-[3-[[1-(3,5-difluorophenyl)-1,2,4-triazol-3-yl]amino]-5-methyl-phenyl]-3-methyl-piperazin-1-yl]-2-methyl-propan-2-ol] | 10 to 100 | ≤ 1 |  |  | 
Cc1cc(Nc2ncn(-c3cc(F)cc(F)c3)n2)cc(N2CC(C(C)(C)O)C2)c1 [Compound 519, 2-[1-[3-[[1-(3,5-difluorophenyl)-1,2,4-triazol-3-yl]amino]-5-methyl-phenyl]azetidin-3-yl]propan-2-ol] |  |  | 100 to 1000 | ≤ 1 | 
Cc1cc(Nc2ncn(-c3cncnc3)n2)cc(N2CCN(C3COC3)CC2)c1 [Compound 535, N-[3-methyl-5-[4-(oxetan-3-yl)piperazin-1-yl]phenyl]-1-pyrimidin-5-yl-1,2,4-triazol-3-amine] |  |  | 1 to 10 | 1 to 10 | 
